Columns and labels:
ATase = molecular target: T1, ATase (Cricetulus griseus, UniProt P26186); test: Inactivation of ATase activity in Hamster +120 cells; format: cell-based, Chinese hamster; details: 2 hours at 37°C, read-out: Inactivation of ATase in Mammalian Cells I50(µM) Hamster + 120
T1 construct: endogenous in cells; host or cells: Hamster +120 (V79 RJKO subline)
T1 sequence (P26186 1-209): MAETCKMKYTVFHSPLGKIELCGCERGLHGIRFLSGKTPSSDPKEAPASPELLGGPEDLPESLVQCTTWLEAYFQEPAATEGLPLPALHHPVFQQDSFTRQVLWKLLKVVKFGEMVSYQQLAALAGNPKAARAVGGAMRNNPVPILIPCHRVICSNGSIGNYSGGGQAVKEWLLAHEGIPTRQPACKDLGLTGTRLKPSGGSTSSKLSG
Protocol: Mammalian cells were cultured under standard conditions. For example, Raji (a human lymphoblastoid cell line from a Burkitt's lymphoma) cells were grown in suspension culture in RPMI medium supplemented with 10% horse serum. […]
Cells were diluted to 10^6/ml in culture medium containing either the appropriate concentration of inactivator or an equivalent volume of vehicle (DMSO). […] ATase activity was determined as described above, in duplicate sonicated cell extracts and expressed as the percentage activity remaining based on that present in the untreated controls (for example 350-450 fm/mg in Raji cells).

Raji cells = test: Sensitization of Raji cells to temozolomide (XTT assay); format: cell-based, human
Protocol: Following a 2 hour incubation at 37°C, medium containing either increasing doses of BCNU, temozolomide or equivalent vehicle was added and the cells allowed to grow for 6 days. At this time XTT solution was added and the cells incubated for a further 4 hours at 37°C. The resulting red/orange formazan reaction product was quantified by measuring absorption at 450nm on a microtitre platereader.

bone marrow cells = test: Inactivator toxicity in bone marrow cells (GM-CFC colonies, inactivator alone); format: cell-based, human; details: 10uM, 5 patients A - E, Table 7, in words
Source text: For the granulocyte/macrophage colony-forming cell (GM-CFC) assay primary human bone marrow samples were obtained from patients undergoing cardiothoracic surgery. […] The colonies represented precursor cells of the granulocyte/macrophage lineage (huGM-CFC). […]

A375 tumour xenografts = test: Sensitization of A375 tumour xenografts to BCNU (tumour volume); format: in vivo, nude mice; details: 30 or 60 mg/kg i.p. 60 - 90 minutes prior to 10 - 25 mg/kg BCNU, Figs. 9-13, in words
Protocol: 0X6 OPT, England (OLAC mice). […] For this reason lower doses were administered.
A375M (human melanoma) cells were grown in DMEM containing 10% fetal bovine serum. The cells were prepared for in vivo inoculation by incubation with 0.01% trypsin.
Cells (10^6) in 100µl of PBS were injected subcutaneously into the right-hand flank of 8-10 week old nu/nu athymic mice. These cells were allowed to develop into a tumour for 3-4 weeks for passaging into experimental animals. Tumour blocks measuring 2mm x 2mm x 2mm were implanted subcutaneously on the right hand flank. These animals were ready for use in inactivator experiments in 7-10 days.
Xenograft tumour measurements were taken every 1-2 days by workers using digital calipers. Tumour volume was calculated using the formula (h x w x 1) π/6. The experimental animals were also weighed every 1-2 days. Measurements continued until tumours in the control animals reached the maximum allowable volume (i.e. 1cm x 1cm x 1cm).

SMILES: Nc1nc(OCc2ccco2)c2nc[nH]c2n1 [B.4203, O^6-furfurylguanine]
- IC50 (ATase): 0.12 µM

SMILES: Nc1nc(OCc2cccs2)c2nc[nH]c2n1 [B.4205, O^6-thenylguanine]
- sensitising Raji cells to the growth inhibitory effects of temozolomide, compared with BeG (Raji cells; 0.1uM inactivator, Figure 3, in words): more effective than BeG
- dose response of sensitization of Raji cells to temozolomide (Raji cells; inactivator 0.1 to 5.0µM, Figures 3 and 4, in words): lack of dose response
- toxic effect of inactivator alone on bone marrow cells, compared with 0^6-benzylguanine (bone marrow cells): comparable to those for 0^6-benzylguanine
- reducing tumour volume / sensitising human melanoma xenografts to BCNU, compared with BeG (A375 tumour xenografts): comparable to 0^6-benzylguanine (BeG)

From EP0702683B1, “06-SUBSTITUTED GUANINE DERIVATIVES, A PROCESS FOR THEIR PREPARATION AND THEIR USE IN TREATING TUMOUR CELLS” (Cancer Research Technology Limited, priority 1993, dated 1994)
